{"source": "patent US8992932B2", "about": "“Binder-drug conjugates (ADCs) and use thereof” (Seattle Genetics, Inc., priority 2011, dated 2015)", "note": "Structures can show the parent of a compound that is named as a salt. Square brackets hold non-standard residues; d marks the D form. Peptide text beside a SMILES is read from it. * marks the point of attachment. X1 = CC(C)[C@@H](C(=O)*)N(C)CCCCCC(=O)NCCCC[C@H](N)C(=O)O; Dolaproine = CO[C@@H]([C@@H]1CCCN1)[C@@H](C)C(=O)O; Dil = CC[C@H](C)[C@H](NC)[C@@H](CC(=O)O)OC; Oxazinan2yl(1,2) = C1CCN(*)OC1"}
{"test_system": "Caco-2 cells", "experiment": "Cell permeability flux assay using Caco-2 cells", "assay_type": "in vitro ADME", "conditions": "basal to apical, 2 hours", "method": "The cell permeability of a substance can be investigated by means of in vitro testing in a flux assay using Caco-2 cells [M. D. Troutman and D R Thakker, Pharm. Res. 20 (8), 1210-1224 (2003)]. For this purpose, the cells were cultured for 15-16 days on 24-well filter plates. For the determination of permeation, the respective working example was applied in a HEPES buffer to the cells either apically (A) or basally (B) and incubated for 2 hours. After 0 hours and after 2 hours, samples were taken from the cis and trans compartments. The samples were separated by HPLC (Agilent 1200, Boblingen, Germany) using reverse phase columns. The HPLC system was coupled via a Turbo Ion Spray Interface to a Triple Quadropol mass spectrometer API 4000 (Applied Biosystems Applera, Darmstadt, Germany). The permeability was evaluated on the basis of a Papp value, which was calculated using the formula published by Schwab et al. [D. Schwab et al., J. Med. Chem. 46, 1716-1725 (2003)].", "units": {"Papp (B-A)": "×10⁻⁶ cm/s"}}
{"smiles": "CC[C@H](C)[C@@H]([C@@H](CC(=O)N1CCC[C@H]1[C@H](OC)[C@@H](C)C(=O)N[C@@H](Cc1c[nH]c2ccccc12)C(=O)O)OC)N(C)C(=O)[C@@H](NC(=O)[C@H](C(C)C)N(C)CCCCCC(=O)NCCCC[C@H](N)C(=O)O)C(C)C", "note": "[Example 116, N-(6-{[(55)-5-Amino-5-carboxypentyl]amino}-6-oxohexyl)-N-methyl-L-valyl-N-[(3R,4S,5S)-1-{(2S)-2-[(1R,2R)-3-{[(1S)-1-carboxy-2-(1H-indol-3-yl)ethyl]amino}-1-methoxy-2-methyl-3-oxopropyl]pyrrolidin-1-yl}-3-methoxy-5-methyl-1-oxoheptan-4-yl]-N-methyl-L-valinamide] (X1-V[Dil][Dolaproine]W-OH)", "Papp (B-A)": 0.1}
{"smiles": "CC[C@H](C)[C@@H]([C@@H](CC(=O)N1CCC[C@H]1[C@H](OC)[C@@H](C)C(=O)N[C@@H](Cc1c[nH]c2ccccc12)C(=O)O)OC)N(C)C(=O)[C@@H](NC(=O)[C@H](C(C)C)N(C)CCCC(=O)NNC(=O)CCCCCN1C(=O)CC(SC[C@H](N)C(=O)O)C1=O)C(C)C", "note": "(stereo partly drawn) [Example 72, N-(4-{2-[6-(3-{[(2R)-2-Amino-2-carboxyethyl]sulphanyl}-2,5-dioxopyrrolidin-1-yl)hexanoyl]hydrazino}-4-oxobutyl)-N-methyl-L-valyl-N-[(3R,4S,5S)-1-{(2S)-2-[(1R,2R)-3-{[(1S)-1-carboxy-2-(1H-indol-3-yl)ethyl]amino}-1-methoxy-2-methyl-3-oxopropyl]pyrrolidin-1-yl}-3-methoxy-5-methyl-1-oxoheptan-4-yl]-N-methyl-L-valinamide]", "Papp (B-A)": 0.16}
{"smiles": "CC[C@H](C)[C@@H]([C@@H](CC(=O)N1CCC[C@H]1[C@H](OC)[C@@H](C)C(=O)N[C@@H](Cc1c[nH]c2ccccc12)C(=O)N1CCCCO1)OC)N(C)C(=O)[C@@H](NC(=O)[C@H](C(C)C)N(C)CCCCCC(=O)NCCCC[C@H](N)C(=O)O)C(C)C", "note": "[Example 115, N-(6-{[(55)-5-Amino-5-carboxypentyl]amino}-6-oxohexyl)-N-methyl-L-valyl-N-[(3R,4S,5S)-1-{(2S)-2-[(1R,2R)-3-{[(2S)-3-(1H-indol-3-yl)-1-(1,2-oxazinan-2-yl)-1-oxopropan-2-yl]amino}-1-methoxy-2-methyl-3-oxopropyl]pyrrolidin-1-yl}-3-methoxy-5-methyl-1-oxoheptan-4-yl]-N-methyl-L-valinamide trifluoroacetate] (X1-V[Dil][Dolaproine]W-{Oxazinan2yl(1,2)})", "Papp (B-A)": 0.2}
{"smiles": "CC[C@H](C)[C@@H]([C@@H](CC(=O)N1CCC[C@H]1[C@H](OC)[C@@H](C)C(=O)N[C@@H](Cc1c[nH]c2ccccc12)C(=O)NCc1ccccc1)OC)N(C)C(=O)[C@@H](NC(=O)[C@H](C(C)C)N(C)CCCC(=O)NNC(=O)CCCCCN1C(=O)CC(SC[C@H](N)C(=O)O)C1=O)C(C)C", "note": "(stereo partly drawn) [Example 77, N-(4-{2-[6-(3-{[(2R)-2-Amino-2-carboxyethyl]sulphanyl}-2,5-dioxopyrrolidin-1-yl)hexanoyl]hydrazino}-4-oxobutyl)-N-methyl-L-valyl-N-[(3R,4S,5S)-1-{(2S)-2-[(1R,2R)-3-{[(2S)-1-(benzylamino)-3-(1H-indol-3-yl)-1-oxopropan-2-yl]amino}-1-methoxy-2-methyl-3-oxopropyl]pyrrolidin-1-yl}-3-methoxy-5-methyl-1-oxoheptan-4-yl]-N-methyl-L-valinamide]", "Papp (B-A)": 0.7}
